Measurements as given in US12466816B2, “Fused cyclic compound capable of degrading protein and use thereof” (Medshine Discovery Inc., priority 2019, dated 2025).

Experiments:
[1] = target: T1, CRBN (Homo sapiens, UniProt Q96SW2); assay: Thermal displacement experiment (CRBN thermal stability, Western blot); format: binding; parameters: endogenous in cells; settings: 100 μM, 293T cell lysates, 56° C. and 59° C.
Procedure: The experiment utilizes the principle that the binding of small molecular compounds to proteins can improve the thermal stability of proteins. 3×10^7 cells were collected and washed twice with phosphate buffered saline (PBS). 100×protease inhibitor cocktail (APEXBIO, K1007) was added to pre-cooled PBS to suspend the cells, and 500 μL of cell suspension was aliquoted into each 1.5 EP tube. The EP tube was placed in liquid nitrogen for quick freezing for 5 min and then transferred to a 26° C. water bath quickly; thereafter, the EP tube was transferred to a 4° C. environment when the liquid is half thawed, until it is completely thawed. This freeze-thaw procedure was performed thrice to allow complete protein precipitation from the cells. The frozen-thawed product was centrifuged at 4° C. for 20 min, the supernatant was aspirated and mixed, and then aliquoted into 1.5 mL EP tubes, and DMSO and WX106 were added respectively to adjust the concentration of WX106 in the solution to 100 μM. […] After the heat shock at all temperatures, the DMSO- and WX106-treated samples at each temperature were collected respectively, centrifuged at 4° C. for 20 min, and the concentration of BCA protein (Thermo) was quantified; at the same time, Western blot was performed to detect the changes of CRBN (Anti-CRBN antibody, Sigma Company, HPA045910) protein content. […]

[2] = target: T1, CRBN; assay: Protein degradation competition experiment (CC885-induced GSPT1 degradation); format: cell-based; parameters: endogenous in cells; host or cells: MOLT-4; settings: MOLT-4 cells, co-treated with 10 nM CC885, 4 hours, Western blot
Procedure: MOLT-4 cells were co-treated with 0.1, 1 and 10 μM of WX106 and 10 nM of CC885 for 4 hours, and the protein level of GSPT1 was then detected by Western blot, with Poma (Pomalidomide, Selleck, S1567) acting as the positive control in the experiment. Cells were collected and denatured in protein loading buffer (50 mM Tris-HCL 2% SDS, 0.025% BPB, 1% β-mercaptoethanol, 10% glycerol) at 98° C. for 10 min. Proteins were separated by SDS-PAGE and transferred to a PVDF membrane (Millipore, IPVH00010), blocked with 5% skim milk (dissolved in TBST buffer), incubated with a primary antibody overnight at 4° C., and then incubated with a secondary antibody (Anti-rabbit IgG, HRP-linked Antibody, Cell Signaling, 7074S) at room temperature for 1 hour, and the bands on the membrane were detected by chemiluminescence (ECL chemiluminescence kit, Beyotime Biotechnology, P0018AM).

[3] = target: Wee1 (Homo sapiens, UniProt P30291); assay: Detection of compounds that degrade Wee1 protein (Western blot); format: cell-based; parameters: endogenous in cells; host or cells: MOLT-4, U87-MG; settings: MOLT-4 cells 10 μM 4 hours, U87-MG cells 1 μM 24 hours
Procedure: MOLT-4 cells were treated with 10 μM of the test compound for 4 hours and U87-MG cells were treated with 1 μM of the test compound for 24 hours, respectively. With GAPDH (Santa Cruz, sc-32233) as the internal reference protein, the protein level of Wee1 (Cell Signaling, 13084S) was detected using Western blot. Cells were collected, lysed with protein loading buffer (1M Tris-HCl, 10% SDS, 0.025% BPB), and denatured at 98° C. for 10 min before Western blot analysis. The main steps include: 1) Electrophoresis: The protein was separated by SDS-PAGE electrophoresis. During the electrophoresis, the voltage was adjusted to 80 v for about 30 min, and then the voltage was adjusted to 120 v until the bromophenol blue ran out of the gel. 2) Transfer to a membrane: the gel was stuck to a methanol-activated PVDF membrane using the method of wet transfer, and after the top and bottom layers were wrapped with filter paper, the membrane was placed into the gel holder cassette and fixed to the transfer tank, and transfer was performed at a constant current of 250 mA for 90 min; 3) Blocking: the PVDF membrane with trace protein was placed into the antibody incubation box, 5% skim milk was added to completely cover the PVDF membrane, and incubation was performed for 1 hour on a shaker at room temperature; 4) Incubation of the primary antibody: the primary antibody was prepared with 5% BSA (1:1000) and incubated overnight on a shaker at 4° C.; 5) Incubation of the secondary antibody: the membrane was washed thrice with TBST, the secondary antibody (prepared with 5% skim milk) was added (according to the species source of the primary antibody, different secondary antibodies with a dilution range of 1:3000-1:10000 were used), and incubation was performed on a shaker at room temperature for one hour; 5) Exposure: the membrane was washed thrice with TBST and the bands on the membrane were detected by chemiluminescence.

[4] = test system: tumor cell lines; assay: Cell experiment: CCK-8 growth inhibition of tumor cell lines; format: cell-based; settings: 72 hours, hematological tumor cells and some liver cancer cells, read-out: growth inhibitory effect (inhibition rate)
Procedure: Different cells were seeded in 96-well plates (the density of adherent cells was 1,000/well and the density of suspension cells was 10,000/well), 10 μM of WX106 was added for 72 hours of action, and CCK-8 reagent (Meilun Biotechnology, MA0218-L) was added for 2 hours of reaction thereafter; and the plate was then read with a microplate reader (SpectraMax i3) and the inhibition rate was calculated. Inhibition rate=[(Ac−As)/(Ac−Ab)]×100% (where As represents the absorbance of experimental wells, Ac represents the absorbance of control wells, and Ab represents the absorbance of blank wells).
Eighteen tumor cell lines were treated with 10 μM of WX106 for 72 hours, and the rate of inhibition of cell growth by WX106 was calculated.

[5] = target: T2, GSPT1 (Homo sapiens, UniProt P15170); assay: Detection of protein degradation by the drug (Western blot); format: cell-based; settings: MOLT-4 cells
T2 construct: endogenous in cells; host or cells: MOLT-4

[6] = test system: colorectal cancer cells and brain tumor cell lines; assay: Clone formation experiment; format: cell-based; settings: 10 μM; some colorectal cancer cells and brain tumor cell lines
Procedure: The effect of the compound on the monoclone-formation capacity of cells was examined. Cells were seeded in 6-well plates at low density (about 500 cells per well), 10 μM of WX106 was added for treatment, crystal violet staining (Beyotime Biotechnology, C0121) was performed when the cells grew into clones visible to the naked eye, and the number of clones was counted. All treatments were performed in at least three replicates.

CRBN protein abundance after heat shock [1]: significantly increased | effect on degradation of GSPT1 induced by CC885 [2]: reversed | pro-degradation effect on Wee1 [3]: pro-degradation effect on Wee1 | relative strength of the pro-degradation effect on Wee1 ([3]; among tested compounds): the strongest | pro-degradation effect on GSPT1 [5]: no significant pro-degradation effect
Structure (SMILES): Cc1ccc(C(=O)Nc2ccc3occ(C4CCC(=O)NC4=O)c3c2)cc1Cl (stereo not shown) [WX106]
inhibition at 10 µM [4]: > 50% | clone formation [6]: inhibits clone formation
